This assay concerns the target P2X7 receptor (Homo sapiens (Human), UniProt Q99572). As to the kind of experiment: P2X7 FLIPR assay (BzATP-stimulated calcium fluorescence, antagonist IC50). It counts as cell-based. The procedure, abridged:
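Cells expressing P2X7 receptor (human, rat or mouse), plated 24 hours earlier in low-serum medium, loaded with Fluo-4 NW dye (30 min 37° C, 30 min room temperature).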

For 32 compounds, IC50 results are on record in patent US9102591B2, “Benzamides” (H. Lundbeck A/S, priority 2012, dated 2015).

pIC50: −log10 of the molar value. Where two headings read alike, the source gives them in different places.

P2X7 receptor, sequence (Q99572 whole entry): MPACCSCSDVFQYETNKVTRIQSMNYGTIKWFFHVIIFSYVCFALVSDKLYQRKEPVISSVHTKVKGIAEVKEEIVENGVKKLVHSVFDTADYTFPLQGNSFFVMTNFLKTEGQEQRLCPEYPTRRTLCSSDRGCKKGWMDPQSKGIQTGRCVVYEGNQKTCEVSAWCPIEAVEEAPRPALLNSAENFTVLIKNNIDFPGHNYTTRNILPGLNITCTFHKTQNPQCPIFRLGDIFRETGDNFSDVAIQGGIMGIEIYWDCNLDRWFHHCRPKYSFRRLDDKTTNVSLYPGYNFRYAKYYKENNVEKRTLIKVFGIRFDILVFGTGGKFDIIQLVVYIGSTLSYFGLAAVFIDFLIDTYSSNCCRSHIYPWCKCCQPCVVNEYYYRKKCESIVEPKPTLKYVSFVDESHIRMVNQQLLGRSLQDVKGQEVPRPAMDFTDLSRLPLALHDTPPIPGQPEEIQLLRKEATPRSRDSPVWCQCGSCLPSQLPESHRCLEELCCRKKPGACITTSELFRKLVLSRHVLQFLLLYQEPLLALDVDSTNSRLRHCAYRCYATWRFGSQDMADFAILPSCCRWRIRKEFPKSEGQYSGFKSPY

Broadly, the pIC50 is the negative decadic logarithm of the IC50, by convention in mol/L. `O=C(NCC(CC1CC1)c1ccc(C(F)(F)F)nc1)c1cccc(Cl)c1Cl` (single isomer, unassigned; (-)) [(−)2,3-dichloro-N-[3-cyclopropyl-2-[6-(trifluoromethyl)-3-py] [(−)2,3-dichloro-N-[3-cyclopropyl-2-[6-(trifluoromethyl)-3-pyridyl]propyl]benzamide]: the pIC50 is 9.51.

As to `O=C(NCC(CC1(C(F)(F)F)CC1)c1ccc(C(F)(F)F)nc1)c1cccc(Cl)c1Cl` (single isomer, unassigned; (+)) [(+)2,3-dichloro-N-[3-[1-(trifluoromethyl)cyclopropyl]-2-[6-(] [(+)2,3-dichloro-N-[3-[1-(trifluoromethyl)cyclopropyl]-2-[6-(trifluoromethyl)-3-pyridyl]propyl]benzamide], the pIC50 is 7.92.

On to `O=C(NCC(CC1CC1)c1cnc(C(F)(F)F)nc1)c1ccccc1Cl` (single isomer, unassigned; (-)) [(−)2-chloro-N-[3-cyclopropyl-2-[2-(trifluoromethyl)pyrimidin] [(−)2-chloro-N-[3-cyclopropyl-2-[2-(trifluoromethyl)pyrimidin-5-yl]propyl]benzamide], for which the pIC50 was 8.49.

Take `Cc1ccccc1C(=O)NCC1(c2ccccc2)CCN(C)CC1` [2-Methyl-N-(1-methyl-4-phenyl-piperidin-4-ylmethyl)-benzamide]: the negative logarithm of the IC50 (pIC50) is 7.19.

As for `Cc1ccc(F)cc1C(=O)NCC1(c2ccc(C(F)(F)F)nc2)CCC(F)(F)CC1` [N-((4,4-difluoro-1-(6-(trifluoromethyl)pyridin-3-yl)cyclohexyl)methyl)-5-fluoro-2-methylbenzamide], the pIC50 is 8.04.

Take `O=C(NCC(c1cnc(C(F)(F)F)nc1)C1CCOCC1)c1ccccc1Cl` (single isomer, unassigned; (+)) [(+)2-chloro-N-[2-tetrahydropyran-4-yl-2-[2-(trifluoromethyl)] [(+)2-chloro-N-[2-tetrahydropyran-4-yl-2-[2-(trifluoromethyl)pyrimidin-5-yl]ethyl]benzamide]: the pIC50 was 7.29.

Turning to `CC(CNC(=O)c1cccc(F)c1Cl)(CC1CC1)c1cnc(C(F)(F)F)nc1` (single isomer, unassigned; (-)) [(−)2-chloro-N-[3-cyclopropyl-2-methyl-2-[2-(trifluoromethyl)] [(−)2-chloro-N-[3-cyclopropyl-2-methyl-2-[2-(trifluoromethyl)pyrimidin-5-yl]propyl]-3-fluoro-benzamide], the pIC50 was 7.47.

As to `COc1cccc(C(=O)NCC(CC2CC2)c2ccc(C(F)(F)F)nc2)c1Cl` (single isomer, unassigned; (+)) [(+)2-chloro-N-[3-cyclopropyl-2-[6-(trifluoromethyl)-3-pyridy] [(+)2-chloro-N-[3-cyclopropyl-2-[6-(trifluoromethyl)-3-pyridyl]propyl]-3-methoxy-benzamide], the pIC50 was 7.92.

As to `O=C(NCC(c1ccc(F)cc1)c1ccc(C(F)(F)F)nc1)c1ccccc1Cl` (single isomer, unassigned; (-)) [(−)2-chloro-N-[2-(4-fluorophenyl)-2-[6-(trifluoromethyl)-3-p] [(−)2-chloro-N-[2-(4-fluorophenyl)-2-[6-(trifluoromethyl)-3-pyridyl]ethyl]benzamide], the pIC50 is 8.51.

As for `Cc1ncc(C(CNC(=O)c2ccccc2Cl)CC2(C(F)(F)F)CC2)cn1` (single isomer, unassigned; (+)) [(+)2-chloro-N-[2-(2-methylpyrimidin-5-yl)-3-[1-(trifluoromet] [(+)2-chloro-N-[2-(2-methylpyrimidin-5-yl)-3-[1-(trifluoromethyl)cyclopropyl]propyl]benzamide], the pIC50 was 6.89.

Consider `Cc1ccccc1C(=O)NCC1(c2ccc(Cl)cc2)CCOCC1` [N-[4-(4-Chloro-phenyl)-tetrahydro-pyran-4-ylmethyl]-2-methyl-benzamide], for which the pIC50 is 5.68.

In the case of `O=C(NCC1(c2ccc(Cl)cc2)CCOCC1)c1cccc(C(F)(F)F)c1F` [N-[4-(4-Chloro-phenyl)-tetrahydro-pyran-4-ylmethyl]-2-fluoro-3-trifluoromethyl-benzamide], the pIC50 is 5.37.

For `O=C(NCC1(c2ccc(C(F)(F)F)nc2)CCOCC1)c1cccc(Cl)c1Cl` [2,3-dichloro-N-((4-(6-(trifluoromethyl)pyridin-3-yl)tetrahydro-2H-pyran-4-yl)methyl)benzamide], the pIC50 was 7.28.

Take `O=C(NCC(c1cnc(C(F)(F)F)nc1)C1CCC(F)(F)CC1)c1ccccc1Cl` (single isomer, unassigned; (+)) [(+)2-chloro-N-[2-(4,4-difluorocyclohexyl)-2-[2-(trifluoromet] [(+)2-chloro-N-[2-(4,4-difluorocyclohexyl)-2-[2-(trifluoromethyl)pyrimidin-5-yl]ethyl]benzamide]: the pIC50 was 7.49.

Turning to `O=C(NCC(CC1CC1)c1cncc(Cl)c1)c1cccc(Cl)c1Cl` (centres unmarked) [2,3-dichloro-N-(2-(5-chloropyridin-3-yl)-3-cyclopropylpropyl)benzamide], the pIC50 was 8.26.

As for `COc1cccc(C(=O)NCC(CC2CC2)c2ccc(C(F)F)nc2)c1Cl` (single isomer, unassigned; (+)) [(+)2-chloro-N-[3-cyclopropyl-2-[6-(difluoromethyl)-3-pyridyl]propyl]-3-methoxy-benzamide], the pIC50 is 8.36.

In the case of `O=C(NCC(CC1(C(F)(F)F)CC1)c1ccc(C(F)(F)F)nc1)c1cccc(F)c1Cl` (single isomer, unassigned; (-)) [(−)2-chloro-3-fluoro-N-[3-[1-(trifluoromethyl)cyclopropyl]-2] [(−)2-chloro-3-fluoro-N-[3-[1-(trifluoromethyl)cyclopropyl]-2-[6-(trifluoromethyl)-3-pyridyl]propyl]benzamide], the pIC50 was 7.80.

As to `O=C(NCC(CC1(C(F)(F)F)CC1)c1cnc(C(F)(F)F)nc1)c1ccccc1Cl` (single isomer, unassigned; (+)) [(+)2-chloro-N-[3-[1-(trifluoromethyl)cyclopropyl]-2-[2-(trifluoromethyl)pyrimidin-5-yl]propyl]benzamide], the pIC50 is 8.62.

For `O=C(NCC(c1ccc(Cl)cc1)C1CCOCC1)c1ccccc1Cl` (centres unmarked) [2-chloro-N-[2-(4-chlorophenyl)-2-tetrahydropyran-4-yl-ethyl]benzamide], the pIC50 is 7.85.

Regarding `O=C(NCC(CC1CC1)c1ccc(C(F)F)nc1)c1ccccc1Cl` (single isomer, unassigned; (-)) [(−)2-chloro-N-[3-cyclopropyl-2-[6-(difluoromethyl)-3-pyridyl] [(−)2-chloro-N-[3-cyclopropyl-2-[6-(difluoromethyl)-3-pyridyl]propyl]benzamide], the pIC50 is 7.77.

Take `Cc1ccc(C(CNC(=O)c2cccc(C)c2C)CC(C)C)cn1` (centres unmarked) [2,3-Dimethyl-N-[4-methyl-2-(6-methyl-pyridin-3-yl)-pentyl]-benzamide]: the pIC50 was 8.36.

Take `COc1ccccc1C(=O)NCC(CC1CC1)c1ccc(C(F)(F)F)nc1` (single isomer, unassigned) [Example 4p, (+)—N-(3-cyclopropyl-2-(6-(trifluoromethyl)pyridin-3-yl)propyl)-2-methoxybenzamide]: the negative logarithm of the IC50 (pIC50) (listed as (+)N-[3-cyclopropyl-2-[6-(trifluoromethyl)-3-pyridyl]propyl]-2-methoxy-benzamide) is 6.00.

Regarding `Cc1ncc(C2(CNC(=O)c3cccc(Cl)c3Cl)CCC(F)(F)CC2)cn1` [2,3-dichloro-N-[[4,4-difluoro-1-(2-methylpyrimidin-5-yl)cyclohexyl]methyl]benzamide], the pIC50 is 8.07.

Take `O=C(NCC(c1cnc(C(F)(F)F)nc1)C1CCC(F)(F)CC1)c1cccc(F)c1Cl` (single isomer, unassigned; (+)) [(+)2-chloro-N-[2-(4,4-difluorocyclohexyl)-2-[2-(trifluoromet] [(+)2-chloro-N-[2-(4,4-difluorocyclohexyl)-2-[2-(trifluoromethyl)pyrimidin-5-yl]ethyl]-3-fluoro-benzamide]: the negative logarithm of the IC50 (pIC50) was 7.35.

Take `Cc1ncc(C(CNC(=O)c2ccccc2Cl)C2CCC(F)(F)CC2)cn1` (centres unmarked) [2-chloro-N-[2-(4,4-difluorocyclohexyl)-2-(2-methylpyrimidin-5-yl)ethyl]benzamide]: the pIC50 is 7.05.

Consider `COc1ccc(C2(CNC(=O)c3cccc(C)c3C)CCCC2)cc1` [N-[1-(4-Methoxy-phenyl)-cyclopentylmethyl]-2,3-dimethyl-benzamide], for which the pIC50 was 6.22.

In the case of `CC(CNC(=O)c1cccc(F)c1Cl)(CC1CC1)c1cnc(C(F)(F)F)nc1` (centres unmarked) [2-chloro-N-[3-cyclopropyl-2-methyl-2-[2-(trifluoromethyl)pyr] [2-chloro-N-[3-cyclopropyl-2-methyl-2-[2-(trifluoromethyl)pyrimidin-5-yl]propyl]-3-fluoro-benzamide], the pIC50 is 7.80.

Consider `O=C(NCC(c1cnc(C(F)(F)F)nc1)C1CCC(F)(F)CC1)c1c(F)cccc1Cl` (single isomer, unassigned; (+)) [(+)2-chloro-N-[2-(4,4-difluorocyclohexyl)-2-[2-(trfluorometh] [(+)2-chloro-N-[2-(4,4-difluorocyclohexyl)-2-[2-(trfluoromethyl)pyrimidin-5-yl]ethyl]-6-fluoro-benzamide], for which the pIC50 was 7.12.

`COc1cccc(C(=O)NCC2(c3ccc(F)nc3)CCC(F)(F)CC2)c1F`: the pIC50 was 7.00.

Regarding `Cc1ncc(C2(C(C)NC(=O)c3cccc(F)c3Cl)CCC(F)(F)CC2)cn1` (centres unmarked) [2-chloro-N-[1-[4,4-difluoro-1-(2-methylpyrimidin-5-yl)cyclohexyl]ethyl]-3-fluoro-benzamide], the pIC50 was 5.70.

Take `COc1ccc(C2(CNC(=O)c3cc(C)ccc3Cl)CCCC2)cc1` [2-Chloro-N-[1-(4-methoxy-phenyl)-cyclopentylmethyl]-5-methyl-benzamide]: the negative logarithm of the IC50 (pIC50) is 6.72.

As to `O=C(NCC(CC1CC1)c1cnc(C(F)(F)F)nc1)c1cccc(Cl)c1Cl` (single isomer, unassigned; (+)) [(+)2,3-dichloro-N-[3-cyclopropyl-2-[2-(trifluoromethyl)pyrim] [(+)2,3-dichloro-N-[3-cyclopropyl-2-[2-(trifluoromethyl)pyrimidin-5-yl]propyl]benzamide], the pIC50 is 8.41.
